Measured values from patent publication US10293020B2, “Peptide therapeutics and methods for using same” (Stealth BioTherapeutics Corp, priority 2013, dated 2019).
Non-standard residues stand in square brackets, D forms with d. No end group written: not given here. Cha = N[C@@H](CC1CCCCC1)C(=O)O

Experiments:
[1] = Variable temperature static 31P NMR of membrane integrity; type: physicochemical; conditions: P:L=1:12.5, 280 K-360 K
From the text: (§1) Large unilamellar vesicles (LUVs) with a transmembrane gradient of about −180 mV are constructed, composed of a mixture of cardiolipin (CL, 10% mol), phosphatidylcholine (PC, 50% mol), and phosphatidylethanolamine (PE, 40% mol). An electrochemical gradient is incorporated because the transloation of MPPs is known to be highly dependent on electrochemical potential. Spectra from three different peptide-lipid systems are compared: Mn^2+ free, Mn^2+ bound to one side of the vesicle, and Mn^2+ bound to both the inside and outside of the vesicle.
(§2) The spinning rate for all MAS experiments is 5 kHz, performed at 310 K. ^13C direct polarization (DP) MAS NMR spectra is decoupled with two pulse phase modulation (TPPM) at ^1H field strengths of 30 kHz. Typical radiofrequency (rf) pulse lengths are ˜5 μs for ^13C and ˜2 μs for ^1H. Static ^31P spectra are decoupled with WALTZ-16 at ^1H field strengths of 6 kHz. Typical rf pulse lengths are ˜4 μs for ^31P.
Static ^31P chemical shift anisotropy NMR measurements are conducted at variable temperatures (280 K-360 K) to determine if any changes in membrane morphology or lipid transition temperatures occurr upon peptide binding. The ^31P NMR spectra of the model mitochondria membranes alone are recorded to provide a comparison to the peptide-bound membranes. […]

[2] = 13C MAS PRE solid-state NMR of peptide in Mn2+-bound vesicles; type: physicochemical
From the text: as §1
A pH difference is used to establish a transmembrane gradient. The membrane encapsulates 300 mM pH 4 phosphate buffer inside the vesicle and 10 mM pH 7 phosphate buffer outside to establish an electrochemical potential of −177 mV, which is reflective of the biologically encountered mitochondrial gradient of −180 mV. The existence of a three unit pH gradient is confirmed by the fluorescence response of 9-aminoacridine as previously described.
Hydrated CL/PC/PE membranes are formed by dissolving the lipids in a 95:5 benzene:ethanol mixture at an appropriate molar ratio of 0.1/0.5/0.4, respectively. The lipid mixture is lyophilized overnight. The dried lipid cake is rehydrated with 300 mM phosphate buffer at pH 4 which is heated to 85° C. The rehydrated lipid sample is incubated for 2 hours at 85° C. and vortexed periodically to produce multilamellar vesicles (MLVs). The resulting MLVs are down-sized using a mini extruder (Avanti Polar Lipids, Inc.) and passed through a 100 nm polycarbonate membrane 21 times to produce LUVs of uniform diameter of 100 nm. The size of the vesicles is confirmed by dynamic light scattering on a ZetaPALS particle size analyzer. The LUVs are dialyzed for at least 8 hours using a Slide-A-Lyzer (Thermo Fisher Scientific) to remove the low pH, high salt buffer and replace it with 10 mM phosphate buffer at pH 7 for the exterior membrane environment.
After dialysis, the MPP is added at the appropriate molar ratio (P:L=1:10 or P:L=1:40) to the LUVs and incubated overnight. The MPP-lipid mixture is centrifuged at 160 000 g for 1.5 hours to yield a hydrated pellet, which is packed into a 200 μL MAS rotor. For the Mn^2+ containing samples, the Mn^2+ solution is prepared from MnCl2.4H2O and added at 8 mol % of the lipids. To obtain one side Mn^2+ bound vesicles, the Mn^2+ solution is either added after ultracentrifugation or during extrusion, producing outside-bound and inside-bound one side Mn^2+ bound samples. For two side Mn^2+ bound vesicles, the vesicles are extruded with the appropriate percentage of Mn^2+ and had Mn^2+ added after dialysis to replace the ions lost during this process.
as §2
To assess the remaining two mechanisms of translocation (electroporation and guanidinium-phosphate complexation), a ^13C MAS NMR PRE method at 310 K is used. In order to assure asymmetric distribution of Mn^2+ paramagnetic ions with the new model inner mitochondrial membranes, the ion position is monitoted with the ^31P NMR signal of the lipid heagroups. Without paramagnetic ions present, the entire signal is measured from all the phospholipid headgroups. The addition of Mn^2+ to the outside of the vesicles is expected to cause signal attenuation of about half the lipids, corresponding to dephasing of the outer leaflet. When the paramagnetic ions are on both sides of the bilayer, the entire ^31P signal is expected to be killed because all lipid headgroups will be in close proximity to Mn^2+. […]

## [Cha]R[Cha]K-NH2 [MPP]
[1]
  effect on bilayer integrity: does not alter the bilayer integrity
[2]; P:L=1:10
  insertion depth in the bilayer: inserted into both leaflets at C2
[2]; P:L=1:40
  insertion depth in the bilayer: inserted at approximately C1-C2
[2]; high peptide concentration, P:L=1:10
  leaflet distribution of the peptide: distributed in both the inner and outer leaflet
[2]; low peptide concentration, P:L=1:40
  leaflet distribution of the peptide: binds only to the outer leaflet
[2]; one side Mn2+ bound, P:L=1:10
  peptide 13C peak signal intensity retained vs unbound sample: ~75%
[2]; two side Mn2+ bound, P:L=1:10
  peptide 13C peak signal retention: about 50%
